Laboratory results from publication PMC12631003 (2025).

Legend:
[1] = test system: miRNA21 (RNA, miRNA) GUUGACUGUUGAAUCUCAUGGCAAC; assay: microscale thermophoresis; settings: Na+ (185 mM NaCl, 8 mM Na2HPO4), no Mg2+; 1 mM EDTA, 0.05% Tween-20; 5 nM RNA; compounds up to 100-300 µM
[2] = test system: pre-let-7a-1 (RNA, miRNA) UUAGGGUCACACCCACCACUGGGAGAUAA; assay: microscale thermophoresis; settings: Na+ (185 mM NaCl, 8 mM Na2HPO4), no Mg2+; 1 mM EDTA, 0.05% Tween-20; 5 nM RNA

Row | Structure (SMILES) | binding [1] | K d [2] [µM]
1 | CCc1nc(C(N)=O)c(Nc2ccc(N3CCC(N4CCN(C)CC4)CC3)c(OC)c2)nc1NC1CCOCC1 | no | 29.4
2 | CN1CCN(c2ccc(C(=O)Nc3n[nH]c4ccc(Cc5cc(F)cc(F)c5)cc34)c(NC3CCOCC3)c2)CC1 | no | 5.0
3 | Cn1cnc2c(F)c(Nc3ccc(Br)cc3Cl)c(C(=O)NOCCO)cc21 |  | 217
4 | N#CC[C@H](C1CCCC1)n1cc(-c2ncnc3[nH]ccc23)cn1 |  | 82.4
